Row | melting point [°C] | SMILES
1 | 237 to 239 | CCc1cccc(Sc2ccccc2)c1NC(=O)CC1c2ccccc2Oc2ccccc21
2 | 137 to 138 | O=C(Nc1ccc(Oc2ccccc2)cc1)N1CCN(c2ncnc3cc(OCc4ccccc4)c(OCc4ccccc4)cc23)CC1
3 | 138 to 139 | CC(=O)NCCCCCNc1ccc(NCCN(C)C)c2c1C(=O)c1ccccc1C2=O
4 | 259 | CCCC1=NN(c2cccc(S(=O)(=O)O)c2)C(=O)C1=CNc1ccccc1CC
5 | 63 to 66 | CCOC(=O)N1C[C@H](O)C[C@H]1CCOc1ccc(Br)cc1CCc1ccccc1
6 | 227 to 229 | CC1(C)CN(c2cccc(-c3cnc4[nH]cc(C(=O)C(C)(C)C)c4n3)c2)C1
7 | 138 to 140 | N#Cc1cnc2c(oc3ccccc32)c1Oc1ccc(Cl)cc1F
8 | 165 to 167 | CC(C)c1ccccc1-c1nc(-c2ccccc2)n[nH]1
9 | 229 to 230 | COc1ccc(-c2[nH]c(-c3ccc([N+](=O)[O-])c(C)c3)nc2C(=O)O)cc1
10 | 282 to 283 | CCCCCCCCc1ccc(NC(=O)Nc2ccc(S(N)(=O)=O)cc2)cc1
11 | > 150 | CCCCN(Cc1ccc(-c2ccccc2S(=O)(=O)NC(=O)c2ccccc2Cl)cc1)C(=O)Oc1ccccc1C(F)(F)F
12 | 280 to 281 | O=C(O)COc1ccc2c(=O)c3ccccc3oc2c1Cl
13 | 68 to 70 | O=C(NCCCCCn1cncn1)c1ccc(Cl)cc1
14 | 248 to 250 | CCOC(=O)C(=O)Nc1ccc2c(=O)n3c(nc2c1)C(=Cc1ccccc1)CC3
15 | 189 to 190 | COC(=O)c1cn(C(c2ccccc2)(c2ccccc2)c2ccccc2)nn1
16 | 166 to 168 | CC(c1oc2ccccc2c(=O)c1-c1cccc(F)c1)n1ccc2ncnc(Cl)c21 (stereo unspecified)
17 | 148 to 149 | COC(=O)c1cc(SCc2ccsc2)c(Oc2ccccc2)c(S(N)(=O)=O)c1
18 | 122 to 123 | CC(=O)c1cc2cc(OCCNC[C@H](O)COc3ccccc3)ccc2o1
19 | 109 | N#Cc1c(CNC(=O)C2(S(=O)(=O)c3ccc(Cl)cc3)CCCC2)nn(-c2ccccc2Cl)c1-c1ccc(Cl)cc1
20 | 94 to 95 | C[Si](C)(C)c1cccc(C[C@@H]2N[C@@H](c3ccccc3)[C@@H](c3ccccc3)OC2=O)c1
21 | 110 | CN(CCOc1ccc(C=CC(=O)N2CCc3c([nH]c4ccccc34)C2c2ccc3c(c2)CCO3)cc1)C(=O)OC(C)(C)C (stereo unspecified)

Row | melting point [°C] | SMILES
22 | 333 to 335 | O=c1c2c[nH]c3c(c-2nn1-c1ccc(Cl)cc1)CC(c1ccccc1)CC3 (stereo unspecified)
23 | 108 | CCOC(=O)C1=C(C)NC(C)=C(C(=O)OCCOC)C1c1cccc([N+](=O)[O-])c1 (stereo unspecified)
24 | 152 to 154 | COc1cc(OC)c(NC(=S)Nc2ccccc2)cc1O
25 | 168 | CCNc1cncc(C(=NCCc2ccccc2Cl)NC#N)c1
26 | > 300 | CC1SC(=O)NN=C1c1ccc2c(c1)C(=NNC(=O)c1ccccn1)C(=O)N2 (stereo unspecified)
27 | 155 to 165 | O=P(O)(c1ccc(S(=O)(=O)c2ccccc2)cc1)c1ccc(S(=O)(=O)c2ccccc2)cc1
28 | 152 | CCOC(=O)C(=O)Nc1ccc(Br)c2cccnc12
29 | 166 to 168 | CC(C)C[C@H](NC(=O)[C@H](Cc1c[nH]cn1)NC(=O)[C@H](Cc1cccc2ccccc12)NC(=O)OCc1ccccc1)[C@@H](O)CC=O
30 | 147 to 149 | N#CCCNC(=O)c1cccc(-c2ccc3c(c2)N(CCc2ccc(Cl)cc2Cl)CC3)c1
31 | 178 | O=C(Nc1ccc2cc(CN3CCCC3)cnc2c1F)c1ccc(-c2ccc(F)cc2)cc1
32 | 162 to 163 | CCc1cnc2c(NC(=O)c3c(Cl)cccc3Cl)cccc2c1CC(=O)NCc1ccccn1
33 | 100 to 102 | CCCCNC(=O)c1ccc(-c2ccc3nnn(Cc4ccc5ncccc5c4)c3n2)cc1F
34 | 128 to 129 | Cc1ccccc1CNc1cc(Br)cc2c1nc(C)n2C
35 | 153 to 154 | COc1ccc2c(c1)c(C1CCN(CCOc3ccccc3C(=O)O)CC1)cn2Cc1ccoc1
36 | 227 to 229 | O=C(Cn1c(-c2ccc(Cl)cc2)nc2cccnc21)NC1=NCCS1
37 | 124 to 125 | CC(=O)Oc1ccc(/C=C/c2cccc(OC(C)=O)c2)cc1
38 | 179 to 182 | CC(=O)Nc1ccc(S(=O)(=O)Cc2cccc(OC(C)=O)c2)c2cccnc12
39 | 268 to 270 | CCn1nc2c(N)nc3ccccc3c2c1CC1(O)CCN(S(C)(=O)=O)CC1
40 | 192 | COc1ccc(N(C(=O)CN2C(=O)c3ccccc3C2=O)c2ccccc2)cc1
41 | 154 to 156 | Cc1ccc(S(=O)(=O)NC(=O)N2C(=O)C(c3ccccc3)N2C(c2ccccc2)c2ccccc2)cc1 (stereo unspecified)
42 | 80 to 82 | N=C(N)NC(=O)Cn1c(Cc2ccco2)ccc1-c1ccccc1

Further lines, the molecule ahead of its results:

Row | SMILES | melting point [°C]
43 | Cn1cc(C(=O)O)cc1C(=O)OC(c1ccc2c(c1)OCO2)c1ccc2c(c1)OCO2 | 103 to 110
44 | Cc1ncc2c(c1O)COC2(C)C | 247
45 | CC(C)Oc1cc(-n2c(Cl)nc(C(F)(F)C(F)(F)F)cc2=O)c(F)cc1Cl | 55 to 58
46 | COc1ccc2c(c1OC)Oc1cccc3cncc-2c13 | 195 to 196
47 | CCCn1nc2c(N)nc3c(c2c1CCCc1cc(C(C)C)no1)CCCC3 | 147 to 149
48 | CON=C(C)c1nc(-c2cccnc2)[nH]c1C | 203 to 205
49 | N=C(N)c1ccc(-n2ccn(-c3ccc(C=CC(=O)O)cc3)c2=O)cc1 | > 350
50 | CCOc1cc(C2=NN(Cc3ccc(N)cc3)C(=O)CC2)ccc1OC | 120
51 | O=[N+]([O-])c1ccc(C(O)C(COc2ccccc2)N2CCC(Cc3ccccc3)CC2)cc1 (stereo unspecified) | 159 to 162
52 | Cn1cc(CC(=O)O)c(OCCCc2cn(-c3ccc(C(F)(F)F)cn3)nc2C2CCCCC2)n1 | 157 to 158
53 | O=C(O)c1ccc(Cl)c2c1CCNCC2 | 144 to 149
54 | N#CSc1ccc(O)cc1Br | 91 to 92
55 | NC(=O)NC1CCCc2ccsc21 (stereo unspecified) | 211 to 213
56 | N#C[C@H]1CC(F)(F)CN1C(=O)CNC1(CO)CCC2(CCOCC2)CC1 | 128
57 | Cc1c(-c2ccc(Cl)c(F)c2)sc2nc(N)[nH]c(=O)c12 | 350 to 370
58 | CC(CCCC(C)(C)OC1CCCCO1)C1CCC2C3CC=C4CC(O)CC(O)C4(C)C3CCC12C (stereo unspecified) | 130 to 132
59 | COc1cc2ccc(CC(=O)O)cc2cc1OC | 115 to 117
60 | COCCN1CCC(O)(c2cccc(Cl)c2Cl)CC1 | 135 to 137
61 | CCCc1nc2c(ccc3[nH]c4cnc(C(=O)OC(C)C)c(C)c4c32)o1 | 223 to 224
62 | CCCCCCCCCCCCCCCC(=O)NS(=O)(=O)CCCC(=O)O | 156 to 157

Row | SMILES | melting point [°C]
63 | CN(CCOc1ccc(Cl)c2c1CC(=O)N2)c1cccs1 | 203 to 204
64 | Cc1cccc(NC(=O)NCCC(=O)O)c1 | 166
65 | CON1C(=O)CC2(CCN(C(=O)OCCBr)CC2)C1=O | 134
66 | CCOC(=O)C(NC(=O)OCc1ccccc1)OCC (stereo unspecified) | 66 to 68
67 | COc1ccc(Sc2oc3ccc(Cl)cc3c2C)nn1 | 131 to 134
68 | C1COCCOCCOCCOCCO1 | 70 to 71
69 | Nc1ccc2c(c1)CNCCS2 | 110 to 111
70 | CC(=O)NC[C@H]1CN(c2ccc(C3CCOCC3)cc2)C(=O)O1 | 185 to 187
71 | CCCC(=O)C1=C(O)CC(c2c(C)c(C)c(C)c3c2OCC3)CC1=O (stereo unspecified) | 140
72 | Cc1nnsc1C(=O)Nc1ccc(-n2nc(C(F)(F)F)cc2C(F)(F)F)c(C(F)(F)F)c1 | 134 to 136
73 | [O-][N+](O)=Cc1ccc(Cl)cc1 | 151 to 153
74 | CCOC(=O)C1=C(NC(C)=O)C(=O)O[C@@H]1C | 119 to 122
75 | O=C(O)C1=Cc2cc3c(cc2OC1C(F)(F)F)OCO3 (stereo unspecified) | 246 to 248
76 | COC(=O)c1ccc(CC(C)=O)cc1 | 40 to 47
77 | COC(=O)CCON1C(C)(C)CC(OC(=O)c2ccccc2C(=O)OC2CC(C)(C)N(OCCC(=O)OC)C(C)(C)C2)CC1(C)C | 117 to 118
78 | CN(C)S(=O)(=O)c1c(S(N)(=O)=O)c(C(C)(C)C)cn1C | 98 to 101
79 | COC(=O)CCCCCCc1ncsc1C(=O)O | 113 to 114
80 | COc1cc(-c2ccc(C#N)cc2)c2nc(-c3ccc(OC)c(F)c3)cc(O)c2c1 | 248 to 250
81 | NC(=O)CCCCCCBr | 84
82 | COc1ccc(/C=C/C(=O)C#CCO)cc1 | 68 to 69

Row | SMILES | melting point [°C]
83 | COc1cc(CO)cc2c1OCO2 | 66 to 67
84 | CC(=O)OCc1ccc(N)cc1 | 83 to 84
85 | NC(=NO)c1c(C(F)(F)F)ccc(F)c1F | 114 to 115
86 | CNC(=O)CN1CCc2cc(Nc3ncc(Cl)c(N[C@H]4[C@@H](C(N)=O)[C@@H]5C=C[C@H]4C5)n3)c(OC)cc2CC1 | 135 to 145
87 | CN1C(=O)CN(C=O)C(c2ccccc2)c2cc(Cl)ccc21 (stereo unspecified) | 167 to 169
88 | N#Cc1cc[nH]c1-c1ccc(Cl)cc1 | 165 to 166
89 | CCOc1ccc(C(=O)OC)cc1C(N)=O | 159 to 161
90 | COC(=O)c1cccc(CC(C)NCC(O)c2ccc(O)c(CO)c2)c1 (stereo unspecified) | 60 to 70
91 | CC(C)(C)OC(=O)N1CC[C@H](CNCc2ccccc2)[C@@H](O)C1 | 91
92 | CCCCCCCc1[nH]c2cc(C(=O)OC)ccc2c1C=O | 177 to 180
93 | O=C(O)CCCCCN1C(=O)c2ccc(C(=O)O)cc2C1=O | 202 to 204
94 | COC(=O)CC/C(C)=C/Cc1c(O)c2c(c(C)c1OC)COC2=O | 104 to 105
95 | CC(C)c1c(C(=O)c2cc(Cl)cc(Cl)c2)[nH]c(=O)[nH]c1=O | 252 to 253
96 | CCOC(=O)c1ccc(C#CCOc2cc3c(cc2C=O)C(C)(C)CCC3(C)C)cc1 | 114 to 115
97 | CC(C)Oc1cc(-n2c(=O)c3c(n(C)c2=O)CCCC3)c(F)cc1Cl | 143 to 145
98 | COC(=O)c1csc(-c2snnc2-c2ccccc2)n1 | 124
99 | COC(=O)c1ccc2c(c1)SCCC2O (stereo unspecified) | 79 to 81
100 | O=CNC1Cc2ccccc2C1 | 72 to 74
101 | COC(=O)N1CC(=O)N(C)c2ccc(F)cc21 | 206 to 208
